Values of other authors as cited in patent US20250041322A1, “HEAT STRESS RELIEVING AGENT” (Hayashibara Co., Ltd., priority 2018, published 2025).

Water solubility, comparison in words: more water-soluble than hesperidin
Structure (SMILES): COc1ccc(C2CC(=O)c3c(O)cc(O[C@@H]4OC(CO)[C@@H](O)C(O)C4O)cc3O2)cc1O (stereo partly drawn) [7-O-β-glucosyl hesperetin]
